In US10870652B2, “Compounds and methods for modulating bruton's tyrosine kinase” (CORVUS PHARMACEUTICALS, INC., priority 2016, dated 2020):

Tests used:
Assay type in all cases: biochemical
ITK = target: T1, ITK (Homo sapiens, UniProt Q08881); assay: ITK IC50 kinase inhibition assay
T1 sequence (Q08881 1-620): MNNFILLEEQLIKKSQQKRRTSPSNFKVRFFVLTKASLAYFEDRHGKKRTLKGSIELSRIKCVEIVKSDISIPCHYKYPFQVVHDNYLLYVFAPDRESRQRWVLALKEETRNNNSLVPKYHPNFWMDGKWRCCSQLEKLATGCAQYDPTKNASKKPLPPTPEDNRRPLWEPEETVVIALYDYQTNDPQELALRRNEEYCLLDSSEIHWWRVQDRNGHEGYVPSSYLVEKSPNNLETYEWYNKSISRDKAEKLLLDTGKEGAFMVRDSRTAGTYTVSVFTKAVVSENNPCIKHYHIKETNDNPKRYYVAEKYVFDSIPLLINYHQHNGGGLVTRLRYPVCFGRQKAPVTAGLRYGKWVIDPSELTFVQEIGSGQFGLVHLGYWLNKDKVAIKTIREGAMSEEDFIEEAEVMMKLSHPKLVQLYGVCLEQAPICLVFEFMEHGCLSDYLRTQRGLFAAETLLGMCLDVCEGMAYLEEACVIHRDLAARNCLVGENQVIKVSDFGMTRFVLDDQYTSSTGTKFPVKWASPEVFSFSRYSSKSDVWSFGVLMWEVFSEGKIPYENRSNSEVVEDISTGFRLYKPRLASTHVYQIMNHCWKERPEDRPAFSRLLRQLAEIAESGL

BTK = BTK (Homo sapiens, UniProt Q06187); assay: BTK IC50 kinase inhibition assay
BTK, sequence (Q06187 whole entry): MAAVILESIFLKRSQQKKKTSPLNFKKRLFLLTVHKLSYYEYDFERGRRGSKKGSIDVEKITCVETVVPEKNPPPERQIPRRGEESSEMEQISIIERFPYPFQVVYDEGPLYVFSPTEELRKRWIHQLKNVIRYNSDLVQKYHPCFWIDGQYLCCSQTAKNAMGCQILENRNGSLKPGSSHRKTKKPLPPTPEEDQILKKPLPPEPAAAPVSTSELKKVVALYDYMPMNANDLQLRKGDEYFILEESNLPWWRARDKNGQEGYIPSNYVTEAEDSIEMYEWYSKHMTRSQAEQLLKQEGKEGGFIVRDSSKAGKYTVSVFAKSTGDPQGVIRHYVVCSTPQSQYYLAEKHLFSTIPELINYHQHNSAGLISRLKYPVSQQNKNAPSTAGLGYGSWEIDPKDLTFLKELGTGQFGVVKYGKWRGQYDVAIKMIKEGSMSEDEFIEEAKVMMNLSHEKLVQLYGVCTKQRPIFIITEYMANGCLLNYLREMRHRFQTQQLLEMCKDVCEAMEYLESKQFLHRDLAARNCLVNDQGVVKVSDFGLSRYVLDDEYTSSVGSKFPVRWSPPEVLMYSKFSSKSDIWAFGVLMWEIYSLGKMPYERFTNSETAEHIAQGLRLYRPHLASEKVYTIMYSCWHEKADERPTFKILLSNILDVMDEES

JAK3 = target: T2, JAK3 (Homo sapiens, UniProt P52333); assay: JAK3 IC50 kinase inhibition assay
T2 sequence (P52333 1-1124): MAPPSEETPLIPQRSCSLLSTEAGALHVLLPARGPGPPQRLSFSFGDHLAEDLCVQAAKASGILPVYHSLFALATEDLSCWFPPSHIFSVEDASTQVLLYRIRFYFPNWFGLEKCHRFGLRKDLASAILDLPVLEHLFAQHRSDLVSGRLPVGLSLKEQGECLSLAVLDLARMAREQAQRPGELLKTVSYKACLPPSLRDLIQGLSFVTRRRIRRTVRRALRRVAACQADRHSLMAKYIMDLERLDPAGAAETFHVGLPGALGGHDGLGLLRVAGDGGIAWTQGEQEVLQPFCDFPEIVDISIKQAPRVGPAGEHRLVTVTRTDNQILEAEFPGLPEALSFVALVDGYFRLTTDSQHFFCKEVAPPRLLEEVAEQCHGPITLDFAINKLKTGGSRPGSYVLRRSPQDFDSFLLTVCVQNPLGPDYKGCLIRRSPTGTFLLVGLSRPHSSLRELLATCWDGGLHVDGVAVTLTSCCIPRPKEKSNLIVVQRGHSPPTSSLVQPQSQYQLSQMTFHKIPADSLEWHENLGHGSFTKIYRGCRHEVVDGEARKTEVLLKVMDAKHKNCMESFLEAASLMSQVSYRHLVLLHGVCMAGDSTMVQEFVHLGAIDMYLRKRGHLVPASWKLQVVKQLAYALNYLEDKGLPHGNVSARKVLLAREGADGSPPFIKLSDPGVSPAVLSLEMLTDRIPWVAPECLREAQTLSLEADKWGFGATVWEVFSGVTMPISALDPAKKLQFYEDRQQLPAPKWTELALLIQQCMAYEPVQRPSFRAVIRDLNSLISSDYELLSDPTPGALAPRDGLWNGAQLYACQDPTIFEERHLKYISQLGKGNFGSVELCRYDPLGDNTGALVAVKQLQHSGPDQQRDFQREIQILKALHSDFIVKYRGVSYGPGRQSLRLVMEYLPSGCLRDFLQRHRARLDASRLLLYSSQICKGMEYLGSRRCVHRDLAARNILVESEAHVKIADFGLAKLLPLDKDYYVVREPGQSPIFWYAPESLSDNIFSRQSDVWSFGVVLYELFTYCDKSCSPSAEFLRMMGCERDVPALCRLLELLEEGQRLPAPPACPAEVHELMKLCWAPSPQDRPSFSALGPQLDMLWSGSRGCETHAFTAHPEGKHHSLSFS

TXK = target: T3, TXK (Homo sapiens, UniProt P42681); assay: TXK IC50 kinase inhibition assay
T3 sequence (P42681 1-527): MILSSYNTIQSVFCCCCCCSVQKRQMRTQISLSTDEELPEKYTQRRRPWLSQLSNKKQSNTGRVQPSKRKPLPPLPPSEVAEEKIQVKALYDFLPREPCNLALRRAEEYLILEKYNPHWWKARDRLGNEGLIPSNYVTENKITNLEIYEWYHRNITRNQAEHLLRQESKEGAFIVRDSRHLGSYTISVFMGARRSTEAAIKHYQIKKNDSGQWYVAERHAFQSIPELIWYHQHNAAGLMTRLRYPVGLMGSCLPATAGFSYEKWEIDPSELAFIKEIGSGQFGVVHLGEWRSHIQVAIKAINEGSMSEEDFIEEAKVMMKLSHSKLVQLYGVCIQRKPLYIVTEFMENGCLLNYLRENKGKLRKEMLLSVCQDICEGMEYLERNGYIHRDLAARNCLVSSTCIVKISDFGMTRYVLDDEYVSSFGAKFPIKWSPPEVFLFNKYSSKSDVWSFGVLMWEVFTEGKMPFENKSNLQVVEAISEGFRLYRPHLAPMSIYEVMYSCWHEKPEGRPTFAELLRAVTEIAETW

Compound | IC50 (ITK) | IC50 (BTK) | IC50 (JAK3) | IC50 (TXK)
C=CC(=O)N1CC[C@@H]1Cn1nc(-c2ccc(Oc3ccccc3)cc2)c2cncnc21 [Compound A53, (R)-1-(2-((3-(4-phenoxyphenyl)-1H-pyrazolo[3,4-d]pyrimidin-1-yl)methyl)azetidin-1-yl)prop-2-en-1-one] | > 500 nM | < 100 nM | > 500 nM | < 100 nM
C=CC(=O)N1CCC[C@H]1Cn1nc(-c2ccc(Oc3ccccc3)cc2)c2cncnc21 [Compound A8, (S)-1-(2-((3-(4-phenoxyphenyl)-1H-pyrazolo[3,4-d]pyrimidin-1-yl)methyl)pyrrolidin-1-yl)prop-2-en-1-one] | > 500 nM | < 100 nM | > 500 nM | < 100 nM
CCC#CC(=O)N1CC2(CC(n3nc(-c4ccc(Oc5ccccc5)cc4)c4cncnc43)C2)C1 [Compound A71, 1-(6-(3-(4-phenoxyphenyl)-1H-pyrazolo[3,4-d]pyrimidin-1-yl)-2-azaspiro[3.3]heptan-2-yl)pent-2-yn-1-one] | > 500 nM | 100 to 500 nM | > 500 nM | 100 to 500 nM
O=C(C#CCN1CCCCC1)N1CC2(CC(n3nc(-c4ccc(Oc5ccccc5)cc4)c4cncnc43)C2)C1 [Compound A77, 1-(6-(3-(4-Phenoxyphenyl)-1H-pyrazolo[3,4-d]pyrimidin-1-yl)-2-azaspiro[3.3]heptan-2-yl)-4-(piperidin-1-yl)but-2-yn-1-one] | > 500 nM | < 100 nM | > 500 nM | < 100 nM
C=CC(=O)N1CC[C@@H](Cn2nc(-c3ccc(Oc4ccccc4)cc3)c3cncnc32)C1 [Compound A14, (R)-1-(3-((3-(4-phenoxyphenyl)-1H-pyrazolo[34-d]pyrimidin-1-yl)methyl)pyrrolidin-1-yl)prop-2-en-1-one] | > 500 nM | 100 to 500 nM | > 500 nM | 100 to 500 nM
CC#CC(=O)N1CC[C@H](Cn2nc(-c3ccc(Oc4ccccc4)cc3)c3cncnc32)C1 [Compound A64, (S)-1-(3-((3-(4-phenoxyphenyl)-1H-pyrazolo[3,4-d]pyrimidin-1-yl)methyl)pyrrolidin-1-yl)but-2-yn-1-one] | > 500 nM | < 100 nM | > 500 nM | 100 to 500 nM
COCC#CC(=O)N1CC2(CC(n3nc(-c4ccc(Oc5ccccc5)cc4)c4cncnc43)C2)C1 [Compound A79, 4-Methoxy-1-(6-(3-(4-phenoxyphenyl)-1H-pyrazolo[3,4-d]pyrimidin-1-yl)-2-azaspiro[3.3]heptan-2-yl)but-2-yn-1-one] | > 500 nM | < 100 nM | > 500 nM | < 100 nM
C=CC(=O)N1CC(n2nc(-c3ccc(Oc4ccccc4)cc3)c3cncnc32)C1 [Compound A13, 1-(3-(3-(4-phenoxyphenyl)-1H-pyrazolo[3,4-d]pyrimidin-1-yl)azetidin-1-yl)prop-2-en-1-one] | > 500 nM | 100 to 500 nM | > 500 nM | 100 to 500 nM
CC#CC(=O)N[C@H]1C[C@H](n2nc(-c3ccc(Oc4ccccc4)cc3)c3cncnc32)C1 [Compound A69, N-((1r,3r)-3-(3-(4-phenoxyphenyl)-1H-pyrazolo[3,4-d]pyrimidin-1-yl)cyclobutyl)but-2-ynamide] | > 500 nM | < 100 nM | > 500 nM | > 500 nM
C=CC(=O)N1CCC[C@@H](n2nc(-c3ccc(Oc4ccccc4)cc3)c3cncc(F)c32)C1 [Compound A26, (R)-1-(3-(7-fluoro-3-(4-phenoxyphenyl)-1H-pyrazolo[4,3-c]pyridin-1-yl)piperidin-1-yl)prop-2-en-1-one] | > 500 nM | < 100 nM | > 500 nM | < 100 nM
C=CC(=O)N1CCC[C@H]1Cn1nc(-c2ccc(Oc3cccc(C(F)F)c3)cc2)c2cncnc21 [Compound A47, (S)-1-(2-((3-(4-(3-(difluoromethyl)phenoxy)phenyl)-1H-pyrazolo[3,4-d]pyrimidin-1-yl)methyl)pyrrolidin-1-yl)prop-2-en-1-one] | > 500 nM | < 100 nM | > 500 nM | < 100 nM
CC#CC(=O)N1CCC(Cn2nc(-c3ccc(Oc4ccccc4)cc3)c3cncnc32)CC1 [Compound A57, 1-(4-((3-(4-phenoxyphenyl)-1H-pyrazolo[3,4-d]pyrimidin-1-yl)methyl)piperidin-1-yl)but-2-yn-1-one] | > 500 nM | > 500 nM | > 500 nM | > 500 nM
C=CC(=O)N1CC[C@H]1Cn1nc(-c2ccc(Oc3ccccc3)cc2)c2cncnc21 [Compound A51, (S)-1-(2-((3-(4-phenoxyphenyl)-1H-pyrazolo[3,4-d]pyrimidin-1-yl)methyl)azetidin-1-yl)prop-2-en-1-one] | > 500 nM | < 100 nM | > 500 nM | < 100 nM
C=C(C)C(=O)N1CCC[C@@H](n2nc(-c3ccc(Oc4ccccc4)cc3)c3cncnc32)C1 [Compound A21, (R)-2-methyl-1-(3-(3-(4-phenoxyphenyl)-1H-pyrazolo[3,4-d]pyrimidin-1-yl)piperidin-1-yl)prop-2-en-1-one] | > 500 nM | > 500 nM | > 500 nM | > 500 nM
C=CC(=O)N1CCC[C@@H]1Cn1nc(-c2ccc(Oc3ccccc3)cc2)c2cncnc21 [Compound A7, (R)-1-(2-((3-(4-phenoxyphenyl)-1H-pyrazolo[3,4-d]pyrimidin-1-yl)methyl)pyrrolidin-1-yl)prop-2-en-1-one] | > 500 nM | < 100 nM | > 500 nM | 100 to 500 nM
CC#CC(=O)N1CC[C@@H](Cn2nc(-c3ccc(Oc4ccccc4)cc3)c3cncnc32)C1 [Compound A63, (R)-1-(3-((3-(4-phenoxyphenyl)-1H-pyrazolo[3,4-d]pyrimidin-1-yl)methyl)pyrrolidin-1-yl)but-2-yn-1-one] | > 500 nM | 100 to 500 nM | > 500 nM | > 500 nM
CC#CC(=O)N[C@H]1CC[C@H](n2nc(-c3ccc(Oc4ccccc4)cc3)c3cncnc32)CC1 [Compound A70, N-((1r,4r)-4-(3-(4-phenoxyphenyl)-1H-pyrazolo[3,4-d]pyrimidin-1-yl)cyclohexyl)but-2-ynamide] | > 500 nM | > 500 nM | > 500 nM | > 500 nM
CC#CC(=O)N1CCC[C@@H]1Cn1nc(-c2ccc(Oc3ccccc3)cc2)c2cncnc21 [Compound A65, (R)-1-(2-((3-(4-phenoxyphenyl)-1H-pyrazolo[3,4-d]pyrimidin-1-yl)methyl)pyrrolidin-1-yl)but-2-yn-1-one] | > 500 nM | 100 to 500 nM | > 500 nM | > 500 nM
